Reference: US20260076948A1, “TREATMENT OF DIABETIC RETINOPATHY USING ENDOTHELIN RECEPTOR ANTAGONISTS” (Perfuse Therapeutics, Inc., priority 2019, published 2026)
“Also recorded” adds a separate entry of the source.

Columns and labels:
[1] = Pharmacokinetics after topical administration in the rabbit; type: in vivo, Dutch-belted rabbits; settings: single eye drop 100 μg, 10 minutes, 2 and 7 hours
Method: To determine the pharmacokinetic properties of Edonentan following topical administration in the rabbit, rabbits (Dutch-belted rabbits) received an eye drop in both eyes (100 μg of Edonentan, 35 μL dose volume/eye). After the administrations, the animals (N=2) were euthanized at different time points (e.g. 10 minutes (immediately after pot-dose), 2 and 7 hours) and tissues were collected for analysis. List of tissues collected include plasma, retina, vitreous humor and bulbar conjunctiva.

ET-1 induced vasospasm = test: Rabbit ET-1 induced vasospasm model, retinal blood flow (FA, OCT-A); type: in vivo, rabbit (Oryctolagus cuniculus)
Method: Adult, male Dutch-belted rabbits were given a 20 μl intravitreal injection (IVT) of 0.5 μg of ET-1 followed by a 20 μl intravitreal injection of 10-100 μg Edonentan given 30 min after the ET-1 administration. IOP, optical coherence tomography-angiography (OCT-A), and fluorescein angiograms (FA) were performed at pre-specified time points (30, 45, 60, and 75 min) following ET-1 and Edonentan administration to assess retinal blood flow changes induced by ET-1+/−Edonentan. […] To evaluate the effect of retinal blood flow following intravitreally administered endothelin-1 (ET-1) followed by the antagonist Edonentan in the rabbit, rabbits (Oryctolagus cuniculus) were given a 20 μL intravitreal injection of ET-1 in the left eye followed by a 20 μL intravitreal injection of Edonentan at 2 (or 3) different doses (e.g. 0.1 μg, 0.5 μg, 2.5 μg). The pulse ox, tonometry, optical coherence tomography angiography (OCTA), fluorescein angiography (FA) and retinal leakage scoring were performed for evaluation.

ETA = target: T1, ETA (Homo sapiens, UniProt P25101); test: Functional potency for ETA receptor; type: biochemical
T1 sequence (P25101 21-427): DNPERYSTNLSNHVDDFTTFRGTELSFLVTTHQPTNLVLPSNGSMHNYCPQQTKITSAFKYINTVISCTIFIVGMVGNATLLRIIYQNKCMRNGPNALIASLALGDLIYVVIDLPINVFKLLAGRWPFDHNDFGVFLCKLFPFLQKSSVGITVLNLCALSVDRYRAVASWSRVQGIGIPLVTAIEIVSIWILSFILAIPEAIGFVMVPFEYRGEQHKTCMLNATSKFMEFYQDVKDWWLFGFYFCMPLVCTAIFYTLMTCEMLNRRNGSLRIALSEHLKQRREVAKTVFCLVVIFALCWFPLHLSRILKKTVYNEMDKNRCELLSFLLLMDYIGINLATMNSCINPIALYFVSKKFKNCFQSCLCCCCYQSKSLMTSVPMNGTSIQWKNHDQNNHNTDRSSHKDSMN
Excerpt: (§1) In the above table, the physicochemical data, e.g., solubility, were obtained following standard protocols known in the field (see, e.g., Reis et al., Mini Rev Med Chem., 2010, 10(11):1071-6; Avdeef et al., Expert Opin Drug Metab Toxicol., 2005, 1(2):325-42; Bharate et al., Comb Chem High Throughput Screen., 2016, 19(6):461-9; and Jain et al., J Pharm Biomed Anal., 2013, 86:11-35.); and the biochemical data, i.e., potency for ETA/ETB, were obtained following the protocols known in the field (see, e.g., Kirkby et al., Br J Pharmacol., 2008, 153(6):1105-19; and Maguire et al., Br J Pharmacol., 2014, 171(24):5555-72.).

Stability in solid state = type: physicochemical; settings: 2 h@125° C.
Excerpt: as §1

Permeability (PAMPA) = type: in vitro ADME; settings: PAMPA log Pe and PSA
Excerpt: as §1

[2] = test system: laser-induced glaucoma model; test: Laser-induced non-human primate glaucoma model, ONH blood flow by LSFG after IVT administration; type: in vivo, rhesus macaque, Macaca Mulatta
Method: Non-human primates (rhesus macaque, Macaca Mulatta) were obtained for this study. One eye of each animal underwent induction of elevation of intraocular pressure (IOP) by repeated laser photocoagulation of the trabecular meshwork. Imaging sessions were repeated to monitor the optic nerve head (ONH) and retinal structural changes. A study was performed to compare an experimental glaucoma eye and a contralateral healthy eye (control) of three non-human primates in global average mean blur rate (MBR) and MBR change from baseline over time as an index of ONH blood flow in a laser-induced glaucoma model. More specifically, a vehicle control, 0.02 mg/mL of Edonentan, 0.2 mg/mL of Edonentan, or 2.0 mg/mL of Edonentan was intravitreally administered ([…]) to a glaucomatous eye of each of three non-human primates (rhesus macaque, Macaca Mulatta). These graphs show the ONH blood flow in the three non-human primates after IVT administration of a vehicle alone (FIG. 7A, FIG. 7E, and FIG. 7I), 0.02 mg/mL of Edonentan (FIG. 7B, FIG. 7F, and FIG. 7J), 0.2 mg/mL of Edonentan (FIG. 7C, FIG. 7G, and FIG. 7K) or 2.0 mg/mL of Edonentan (FIG. 7D, FIG. 7H, and FIG. 7L). […] In one of the above three non-human primates, an LSFG scan was performed at various selected time points when Edonentan was administered at 2.0 mg/mL.

[3] = Pharmacokinetics after topical or oral administration in the rat; type: in vivo, Brown Norway rats
Method: After the administrations, the animals (N=2) were euthanized at different time points (e.g. 4 and 8 hours) and tissues were collected for analysis. List of tissues collected include plasma, retina/retinal pigment epithelium (RPE)/choroid, vitreous humor and aqueous humor.

ETA/ETB receptor = settings: background statement; cited from earlier work
[4] = test system: oxygen-induced ischemic retinopathy (OIR); test: Mouse oxygen-induced ischemic retinopathy (OIR), retinal hypoxia area; type: in vivo; settings: OIR mice, IVT single dose 1 μL of 2 μg/μL; 24, 48, 96 hours
Method: A relevant mice model was used to obtain the retinal hypoxia area in mice with oxygen-induced ischemic retinopathy (OIR) at different time points, as shown in FIG. 4. […] Briefly, at P17, mice with OIR (n=60) were given an injection of ET-1 antagonist (1 μL of 2 μg/μL Edonentan formulation, single dose) in one eye and PBS in the fellow eye. At 24, 48, and 96 hours after injection, mice (n=10 for each time point) were euthanized and the retinas were dissected and stained with GSA lectin and hypoxyprobe. The area of NV, area of retinal hypoxia, and the area of retinal nonperfusion were determined for each retina.

Cc1onc(NS(=O)(=O)c2ccccc2-c2ccc(-c3ncco3)cc2CN(C)C(=O)CC(C)(C)C)c1C [Edonentan, N-[[2′-[[(4,5-dimethyl-3-isoxazolyl)amino]sulfonyl]-4-(2-oxazolyl)[1,1′-biphenyl]-2-yl]methyl]-N,3,3-trimethylbutanamide]
Tissue exposure after topical administration (plasma, retina, vitreous humor, bulbar conjunctiva) [1]: detected in all tissues examined at all timepoints; also recorded: penetrate through ocular layers | ET-1 induced vasospasm / vasoconstriction (fluorescein angiography) (ET-1 induced vasospasm; 0.5 μg ET-1 IVT, then 10 μg Edonentan IVT 30 min later): reversed; also recorded: reversal | Time to reversal of the ET-1 effect (ET-1 induced vasospasm; after ET-1, 10 μg Edonentan IVT (60 min after Edonentan)): ≤ 90 min | Fluorescein dye velocity as an index of retinal blood flow (ET-1 induced vasospasm; healthy rabbits, 0.5 μg ET-1 and 10 μg antagonist IVT): improved to control levels | Functional potency for ETA and ETB receptors, rating in words (ETA): High potency | Specificity ETA versus ETB, rating in words (ETA; ETA vs ETB): High specificity | Stability in Solid State, in words (Stability in solid state): Stable | Permeability, rating in words (Permeability (PAMPA)): Mid-High | ONH blood flow (global average MBR, LSFG), individual animals ([2]; IVT 0.02, 0.2 or 2.0 mg/mL Edonentan, glaucomatous eye, over 6 hours): improvement of ONH blood flow in a dose-dependent manner | ONH blood flow, aggregate of three non-human primates ([2]; IVT 0.02, 0.2 or 2.0 mg/mL, experimental glaucoma eyes vs control eyes): does-related increase of ONH blood flow | Ocular exposure after topical administration (retina/RPE/choroid, aqueous humor, vitreous humor) ([3]; eye drop 100 μg, 4 and 8 hours): detected; also recorded: permeate through cornea/sclera and achieve retina exposure | Detection in the aqueous humor after oral administration ([3]; oral, 17 mg/kg as printed): detectable | Detection in the retina/RPE/choroid and vitreous humor after oral administration ([3]; oral, 1.7 and 17 mg/kg as printed): detectable | Endothelin receptor antagonism, description in words (ETA/ETB receptor): highly selective and very potent endothelin A receptor antagonist | Retinal hypoxia area [4]: improvement of retinal hypoxia; also recorded: improved retinal hypoxia
